The values that follow come from patent US20240376123A1, “KRAS G12D INHIBITORS AND USES THEREOF” (SUZHOU ZANRONG PHARMA LIMITED, priority 2021, published 2024).

pIC50: −log10 of the molar value.

The subject of one test is p-ERK in PNAC-1/HPAC cell. The experiment in a line: Phospho-ERK 1/2 assay (Table 1). In kind it is cell-based. The conditions noted are these: Homo sapiens, HPAC, 3 h, read-out: p-ERK IC50, PNAC-1/HPAC cell, 3 hours compound incubation. The method, then: Allow PNAC-1/HPAC cell growth in a T75 flask in DMEM and 10% 1 fetal calf serum (FCS; Gibco), using standard tissue culture procedures until ˜80% confluency is achieved. Day 1, seed 6000 cells/well in 384 well plate and incubate at 37° C., 5% CO2. Add diluted compound by Echo 550, final DMSO is 0.5%, incubate cells at 37° C., 5% CO2 for 3 hours. Then, remove medium and fix cells with 3.7% formaldehyde in PBS (PFA) by Apricot. Wash with PBS once. Permeabilize cells with cold 100% methanol and repeat wash once with PBS once. Add Li-Cor blocking buffer to each well and incubate 1.5 hours at RT. Remove blocking buffer and add primary antibody mixture (rabbit anti pERK, mouse anti GAPDH). Incubate at 4° C. overnight. Day 2, wash with PBST (Tween-20 in PBS) with total 3 times and then add secondary antibody mixture (goat anti rabbit 800CW (1:800 dilution in the combined solution) and goat anti mouse 680RD (1:800 dilution in the combined solution)), incubate for 60 minutes at RT away from light. Repeat washing with PBST 3 times. After final wash, centrifuge plate up-side-down at 1000 rpm to remove wash solution completely from wells. Before plate scanning, clean the bottom plate surface and the Odyssey* Imager scanning bed (if applicable) with moist, lint-free tissue to avoid any obstructions during scanning. Scan plate with detection in both 700 and 800 nm channels.
As to `C#Cc1c(F)ccc2cccc(-c3nc4c5c(nc(OCC67CCCN6C(COC(=O)N(C)C)CC7)nc5c3F)N3CC5CCC(N5)[C@H]3CO4)c12` (stereo in doubt) [Compound 37, (7a-((((5aS,6R,9S)-2-(8-ethynyl-7-fluoronaphthalen-1-yl)-1-fluoro-5a,6,7,8,9,10-hexahydro-5H-4-oxa-3,10a,11,13,14-pentaaza-6,9-methanonaphtho[1,8-ab]heptalen-12-yl)oxy)methyl)hexahydro-1H-pyrrolizin-3-yl)methyl dimethylcarbamate], the pIC50 is 7.30.

The same test, now with this note: Homo sapiens; PNAC-1/HPAC cell, 3 hours compound incubation; read-out: p-ERK IC50.
As for `C#Cc1c(F)ccc2cccc(-c3nc4c5c(nc(OC[C@@]67CCCN6C[C@H](F)C7)nc5c3F)N3CC5CCC(N5)[C@@H]3CO4)c12` (single isomer, unassigned) [Compound 9], the pIC50 is 6.51.

On to `C#Cc1c(F)ccc2cccc(-c3nc4c5c(nc(OC[C@@H]6C[C@@H](F)CN6C)nc5c3F)N3CC5CCC(N5)[C@H]3CO4)c12` (stereo in doubt) [Compound 32, (5aS,6R,9S)-2-(8-ethynyl-7-fluoronaphthalen-1-yl)-1-fluoro-12-(((2S,4R)-4-fluoro-1-methylpyrrolidin-2-yl)methoxy)-5a,6,7,8,9,10-hexahydro-5H-4-oxa-3,10a,11,13,14-pentaaza-6,9-methanonaphtho[1,8-ab]heptalene], for which the pIC50 was 6.85.

In the case of `C#Cc1c(F)ccc2cccc(-c3nc4c5c(nc(C(=O)N[C@H](C)CN(C)C)nc5c3F)N3CC5CCC(N5)[C@H]3CO4)c12` (stereo in doubt) [Compound 33, (5aS,6R,9S)—N—((R)-1-(dimethylamino)propan-2-yl)-2-(8-ethynyl-7-fluoronaphthalen-1-yl)-1-fluoro-5a,6,7,8,9,10-hexahydro-5H-4-oxa-3,10a,11,13,14-pentaaza-6,9-methanonaphtho[1,8-ab]heptalene-12-carboxamide], the pIC50 is 7.12.

Turning to `[2H]C#Cc1c(F)ccc2cccc(-c3nc4c5c(nc(OC[C@@]67CCCN6C[C@H](F)C7)nc5c3F)N3CC5CCC(N5)[C@H]3CO4)c12` (stereo in doubt) [Compound 34, (5aS,6R,9S)-2-(8-(ethynyl-d)-7-fluoronaphthalen-1-yl)-1-fluoro-12-(((2R,7aS)-2-fluorotetrahydro-1H-pyrrolizin-7a(5H)-yl)methoxy)-5a,6,7,8,9,10-hexahydro-5H-4-oxa-3,10a,11,13,14-pentaaza-6,9-methanonaphtho[1,8-ab]heptalene], the pIC50 is 8.30.

Turning to `C#Cc1c(F)ccc2cccc(-c3nc4c5c(nc(OCC6(CN7CCOC8(CC8)C7)CC6)nc5c3F)N3CC5CCC(N5)[C@H]3CO4)c12` (stereo in doubt) [Compound 46, (5aS,6R,9S)-12-((1-((4-oxa-7-azaspiro[2.5]octan-7-yl)methyl)cyclopropyl)methoxy)-2-(8-ethynyl-7-fluoronaphthalen-1-yl)-1-fluoro-5a,6,7,8,9,10-hexahydro-5H-4-oxa-3,10a,11,13,14-pentaaza-6,9-methanonaphtho[1,8-ab]heptalene], the pIC50 was 6.48.

Take `C#Cc1c(F)ccc2cccc(-c3nc4c5c(nc(OCC67CCCN6C(COC(=O)N6CCOCC6)CC7)nc5c3F)N3CC5CCC(N5)[C@H]3CO4)c12` (stereo in doubt) [Compound 47, (7a-((((5aS,6R,9S)-2-(8-ethynyl-7-fluoronaphthalen-1-yl)-1-fluoro-5a,6,7,8,9,10-hexahydro-5H-4-oxa-3,10a,11,13,14-pentaaza-6,9-methanonaphtho[1,8-ab]heptalen-12-yl)oxy)methyl)hexahydro-1H-pyrrolizin-3-yl)methyl morpholine-4-carboxylate]: the pIC50 is 6.98.

`C#Cc1c(F)ccc2cccc(-c3nc4c5c(nc(OCC6(CN7C8CCC7COC8)CC6)nc5c3F)N3CC5CCC(N5)[C@H]3CO4)c12` (stereo in doubt) [Compound 49, (5aS,6R,9S)-12-((1-((3-oxa-8-azabicyclo[3.2.1]octan-8-yl)methyl)cyclopropyl)methoxy)-2-(8-ethynyl-7-fluoronaphthalen-1-yl)-1-fluoro-5a,6,7,8,9,10-hexahydro-5H-4-oxa-3,10a,11,13,14-pentaaza-6,9-methanonaphtho[1,8-ab]heptalene]: the pIC50 is 6.07.

Take `Cc1cc(N)nc(-c2nc3c4c(nc(OC[C@@]56CCCN5C[C@H](F)C6)nc4c2F)N2CC4CCC(N4)[C@H]2CO3)c1C(F)(F)F` (stereo in doubt) [Compound 53, 6-((5aS,6R,9S)-1-fluoro-12-(((2R,7aS)-2-fluorotetrahydro-1H-pyrrolizin-7a(5H)-yl)methoxy)-5a,6,7,8,9,10-hexahydro-5H-4-oxa-3,10a,11,13,14-pentaaza-6,9-methanonaphtho[1,8-ab]heptalen-2-yl)-4-methyl-5-(trifluoromethyl) pyridin-2-amine]: the pIC50 is 6.34.

Regarding `Oc1cc(-c2nc3c4c(nc(OC[C@@]56CCCN5C[C@H](F)C6)nc4c2F)N2C[C@@H]4CC[C@@H](N4)C2CO3)c2c(Cl)cccc2c1` (stereo partly drawn) [Compound 1, 5-Chloro-4-((6R,9S)-1-fluoro-12-(((2R,7aS)-2-fluorotetrahydro-1H-pyrrolizin-7a(5H)-yl)methoxy)-5a,6,7,8,9,10-hexahydro-5H-4-oxa-3,10a,11,13,14-pentaaza-6,9-methanonaphtho[1,8-ab]heptalen-2-yl)naphthalen-2-ol], the pIC50 was 7.48.

Take `Oc1cc(-c2nc3c4c(nc(OCC56CCCN5CCC6)nc4c2F)N2C[C@@H]4CC[C@@H](N4)C2CO3)c2c(Cl)cccc2c1` (stereo partly drawn) [Compound 2, 5-chloro-4-((6R,9S)-1-fluoro-12-((tetrahydro-1H-pyrrolizin-7a(5H)-yl)methoxy)-5a,6,7,8,9,10-hexahydro-5H-4-oxa-3,10a,11,13,14-pentaaza-6,9-methanonaphtho[1,8-ab]heptalen-2-yl)naphthalen-2-ol]: the pIC50 was 6.14.

Consider `Oc1cc(-c2nc3c4c(nc(OC[C@@]56CCCN5C[C@H](F)C6)nc4c2F)N2C[C@@H]4CC[C@@H](N4)C2CO3)c2cc(F)ccc2c1` (stereo partly drawn) [Compound 3, 6-fluoro-4-((6R,9S)-1-fluoro-12-(((2R,7aS)-2-fluorotetrahydro-1H-pyrrolizin-7a(5H)-yl)methoxy)-5a,6,7,8,9,10-hexahydro-5H-4-oxa-3,10a,11,13,14-pentaaza-6,9-methanonaphtho[1,8-ab]heptalen-2-yl)naphthalen-2-ol], for which the pIC50 was 7.59.

In the case of `CCc1c(F)ccc2cccc(-c3nc4c5c(nc(OC[C@@]67CCCN6C[C@H](F)C7)nc5c3F)N3C[C@@H]5CC[C@@H](N5)C3CO4)c12` (stereo partly drawn) [Compound 4, (6R,9S)-2-(8-ethyl-7-fluoronaphthalen-1-yl)-1-fluoro-12-(((2R,7aS)-2-fluorotetrahydro-1H-pyrrolizin-7a(5H)-yl)methoxy)-5a,6,7,8,9,10-hexahydro-5H-4-oxa-3,10a,11,13,14-pentaaza-6,9-methanonaphtho[1,8-ab]heptalene], the pIC50 was 6.92.

As to `C#Cc1cccc2cc(O)cc(-c3nc4c5c(nc(OC[C@@]67CCCN6C[C@H](F)C7)nc5c3F)N3C[C@@H]5CC[C@@H](N5)C3CO4)c12` (stereo partly drawn) [Compound 5, 5-ethynyl-4-((6R,9S)-1-fluoro-12-(((2R,7aS)-2-fluorotetrahydro-1H-pyrrolizin-7a(5H)-yl)methoxy)-5a,6,7,8,9,10-hexahydro-5H-4-oxa-3,10a,11,13,14-pentaaza-6,9-methanonaphtho[1,8-ab]heptalen-2-yl)naphthalen-2-ol], the pIC50 is 7.11.

In the case of `Oc1cc(-c2nc3c4c(nc(OC[C@@]56CCCN5C[C@H](F)C6)nc4c2F)N2C[C@@H]4CC[C@@H](N4)C2CO3)c2c(F)cccc2c1` (stereo partly drawn) [Compound 6, 5-fluoro-4-((6R,9S)-1-fluoro-12-(((2R,7aS)-2-fluorotetrahydro-1H-pyrrolizin-7a(5H)-yl)methoxy)-5a,6,7,8,9,10-hexahydro-5H-4-oxa-3,10a,11,13,14-pentaaza-6,9-methanonaphtho[1,8-ab]heptalen-2-yl)naphthalen-2-ol], the pIC50 is 7.07.

As for `C#Cc1c(F)ccc2cc(O)cc(-c3nc4c5c(nc(OC[C@@]67CCCN6C[C@H](F)C7)nc5c3F)N3C[C@@H]5CC[C@@H](N5)C3CO4)c12` (stereo partly drawn) [Compound 7, 5-ethynyl-6-fluoro-4-((6R,9S)-1-fluoro-12-(((2R,7aS)-2-fluorotetrahydro-1H-pyrrolizin-7a(5H)-yl)methoxy)-5a,6,7,8,9,10-hexahydro-5H-4-oxa-3,10a,11,13,14-pentaaza-6,9-methanonaphtho[1,8-ab]heptalen-2-yl)naphthalen-2-ol], the pIC50 was 7.47.

The same test, now with this note: read-out: p-ERK IC50; PNAC-1/HPAC cell, 3 hours compound incubation.
Turning to `C#Cc1c(F)ccc2cccc(-c3nc4c5c(nc(OCC67CCCN6C(COC(=O)N(C)C)CC7)nc5c3F)N3CC5CCC(N5)[C@H]3CO4)c12` (stereo in doubt) [Compound 38, (7a-((((5aS,6R,9S)-2-(8-ethynyl-7-fluoronaphthalen-1-yl)-1-fluoro-5a,6,7,8,9,10-hexahydro-5H-4-oxa-3,10a,11,13,14-pentaaza-6,9-methanonaphtho[1,8-ab]heptalen-12-yl)oxy)methyl)hexahydro-1H-pyrrolizin-3-yl)methyl dimethylcarbamate], the pIC50 is 7.15.
